Laboratory results published in PMC2745609 (Journal of medicinal chemistry, 2009).

Assays:
[1] = target: HIV-1 protease (Human immunodeficiency virus type 1 group M subtype B, UniProt P04585); assay: HIV-1 protease enzyme inhibition; format: biochemical; details: for fold improvement of enzyme Ki over 17a: relative to 17a
[2] = tested on: HIV-1lai; assay: Antiviral activity in MT-2 human T-lymphoid cells exposed to HIV-1LAI, MTT assay; format: cell-based; details: for IC50: Human immunodeficiency virus 1, MT2, in Homo sapiens
[3] = tested on: HIV-1ERS104pre (wild-type); assay: Anti-HIV activity in PHA-PBM, p24 Gag production, wild-type clinical isolate; format: cell-based; details: Human immunodeficiency virus 1, PBMC, read-out: IC50 against HIV-1ERS104pre

Compound | IC50 [2] [µM] | IC50 [3] [µM] | further results
COc1ccc(S(=O)(=O)N(C[C@@H]2CCC(=O)N2)C[C@@H](O)[C@H](Cc2ccccc2)NC(=O)O[C@H]2CO[C@H]3OCC[C@H]32)cc1 [Inhibitor 17a, (3R,3aS,6aR)-Hexahydrofuro[2,3-b]furan-3-yl(2S,3R)-3-hydroxy-4-(4-methoxy-N-(((S)-5-oxopyrrolidin-2-yl)methyl)phenylsulfonamido)-1-phenylbutan-2-yl-carbamate] | – | – | Ki ([1]; Ki (nM), enzyme inhibitory potency): 1 nM
COc1ccc(S(=O)(=O)N(C[C@@H]2CCC(=O)N2)C[C@@H](O)[C@H](Cc2ccccc2)NC(=O)O[C@@H]2C[C@@H]3CCO[C@@H]3C2)cc1 [Inhibitor 17b, (3aS,5R,6aR)-Hexahydro-2H–cyclopenta[b]furan-5-yl-(2S,3R)-3-hydroxy-4-(4-methoxy-N-(((S)-5-oxopyrrolidin-2-yl)methyl)phenylsulfonamido)-1-phenylbutan-2-ylcarbamate] | – | – | fold improvement of enzyme Ki over 17a [1]: 3 fold
Nc1ccc(S(=O)(=O)N(C[C@@H]2CCC(=O)N2)C[C@@H](O)[C@H](Cc2ccccc2)NC(=O)O[C@H]2CO[C@H]3OCC[C@H]32)cc1 [Inhibitor 18a, (3R,3aS,6aR)-Hexahydrofuro[2,3-b]furan-3-yl(2S,3R)-4-(4-amino-N-(((S)-5-oxopyrrolidin-2-yl)methyl)phenylsulfonamido)-3-hydroxy-1-phenylbutan-2-ylcarbamate] | > 1 | – | –
COc1ccc(S(=O)(=O)N(C[C@H]2CCC(=O)N2)C[C@@H](O)[C@H](Cc2ccccc2)NC(=O)O[C@H]2CO[C@H]3OCC[C@H]32)cc1 [Inhibitor 19a, (3R,3aS,6aR)-Hexahydrofuro[2,3-b]furan-3-yl(2S,3R)-3-hydroxy-4-(4-methoxy-N-(((R)-5-oxopyrrolidin-2-yl)methyl)phenylsulfonamido)-1-phenylbutan-2ylcarbamate] | – | – | fold improvement of enzyme Ki over 17a [1]: 10 fold
COc1ccc(S(=O)(=O)N(C[C@H]2CCC(=O)N2)C[C@@H](O)[C@H](Cc2ccccc2)NC(=O)O[C@@H]2C[C@@H]3CCO[C@@H]3C2)cc1 [Inhibitor 19b, (3aS,5R,6aR)-Hexahydro-2H–cyclopenta[b]furan-5-yl-(2S,3R)-3-hydroxy-4-(4-methoxy-N-(((R)-5-oxopyrrolidin-2-yl)methyl)phenylsulfonamido)-1-phenylbutan-2-ylcarbamate] | – | 0.028 | fold improvement in antiviral activity relative to 17b ([2]; relative to epimeric (S)-pyrrolidinone derivative 17b): 10 fold
Nc1ccc(S(=O)(=O)N(C[C@@H]2COC(=O)N2)C[C@@H](O)[C@H](Cc2ccccc2)NC(=O)O[C@H]2CO[C@H]3OCC[C@H]32)cc1 [Inhibitor 30, (3R,3aS,6aR)-hexahydrofuro[2,3-b]furan-3-yl-(2S,3R)-4-(4-amino-N-(((R)-2-oxooxazolidin-4-yl)methyl)phenylsulfonamido)-3-hydroxy-1-phenylbutan-2-ylcarbamate] | > 1 | – | –
CC(C)CN(C[C@@H](O)[C@H](Cc1ccccc1)NC(=O)O[C@H]1CCOC1)S(=O)(=O)c1ccc(N)cc1 [amprenavir, reference compound] | 0.03 | 0.025 | –
CC(C)(C)NC(=O)[C@@H]1CN(Cc2cccnc2)CCN1C[C@@H](O)C[C@@H](Cc1ccccc1)C(=O)N[C@H]1c2ccccc2C[C@H]1O [indinavir, reference compound] | 0.03 | 0.028 | –
CC(C)(C)NC(=O)[C@@H]1C[C@@H]2CCCC[C@@H]2CN1C[C@@H](O)[C@H](Cc1ccccc1)NC(=O)[C@H](CC(N)=O)NC(=O)c1ccc2ccccc2n1 [saquinavir, reference compound] | 0.015 | – | –
